Test results taken from ChEMBL document CHEMBL1275589, “Molecular epidemiology, sequence types, and plasmid analyses of KPC-producing Klebsiella pneumoniae strains in Israel” (2010).
Values after ≈ are worked out from the molar mass of the structure shown.

Assays:
Klebsiella pneumoniae [1] = assay: Antimicrobial activity against carbapenem-resistant KPC-2 producing Klebsiella pneumoniae 475 ST 277 expressing beta-lactamase SHV-27, CTX-M-15 and OXA-4 by agar dilution method in presence of beta-lactamase inhibitor Tazobactam; assay type: functional
Klebsiella pneumoniae [2] = assay: Antimicrobial activity against carbapenem-resistant KPC-2 producing Klebsiella pneumoniae 475transformant by agar dilution method in presence of beta-lactamase inhibitor Tazobactam; assay type: functional
Klebsiella pneumoniae [3] = assay: Antimicrobial activity against carbapenem-resistant KPC-2 producing Klebsiella pneumoniae 469 ST 277 expressing beta-lactamase SHV-27, CTX-M-15 and OXA-4 by agar dilution method in presence of beta-lactamase inhibitor Tazobactam; assay type: functional
Klebsiella pneumoniae [4] = assay: Antimicrobial activity against carbapenem-resistant KPC-2 producing Klebsiella pneumoniae 469 transformant by agar dilution method in presence of beta-lactamase inhibitor Tazobactam; assay type: functional
Klebsiella pneumoniae [5] = assay: Antimicrobial activity against carbapenem-resistant KPC-2 producing Klebsiella pneumoniae 523 ST 340 expressing beta-lactamase TEM-1, SHV-11 and OXA-2 by agar dilution method in presence of beta-lactamase inhibitor Tazobactam; assay type: functional
Klebsiella pneumoniae [6] = assay: Antimicrobial activity against carbapenem-resistant KPC-2 producing Klebsiella pneumoniae 523transformant by agar dilution method in presence of beta-lactamase inhibitor Tazobactam; assay type: functional
Klebsiella pneumoniae [7] = assay: Antimicrobial activity against carbapenem-resistant KPC-2 producing Klebsiella pneumoniae 588 ST 340 expressing beta-lactamase TEM-1 and SHV-11 by agar dilution method in presence of beta-lactamase inhibitor Tazobactam; assay type: functional
Klebsiella pneumoniae [8] = assay: Antimicrobial activity against carbapenem-resistant KPC-2 producing Klebsiella pneumoniae 588 transformant by agar dilution method in presence of beta-lactamase inhibitor Tazobactam; assay type: functional
Klebsiella pneumoniae [9] = assay: Antimicrobial activity against carbapenem-resistant KPC-2 producing Klebsiella pneumoniae 365 transformant by agar dilution method in presence of beta-lactamase inhibitor Tazobactam; assay type: functional
Klebsiella pneumoniae [10] = assay: Antimicrobial activity against carbapenem-resistant KPC-2 producing Klebsiella pneumoniae 531 ST 376 expressing beta-lactamase SHV-1 by agar dilution method in presence of beta-lactamase inhibitor Tazobactam; assay type: functional
Klebsiella pneumoniae [11] = assay: Antimicrobial activity against carbapenem-resistant KPC-2 producing Klebsiella pneumoniae 531 transformant by agar dilution method in presence of beta-lactamase inhibitor Tazobactam; assay type: functional
Klebsiella pneumoniae [12] = assay: Antimicrobial activity against carbapenem-resistant KPC-2 producing Klebsiella pneumoniae 525 ST 376 expressing beta-lactamase SHV-1 by agar dilution method in presence of beta-lactamase inhibitor Tazobactam; assay type: functional
Klebsiella pneumoniae [13] = assay: Antimicrobial activity against carbapenem-resistant KPC-2 producing Klebsiella pneumoniae 525 transformant by agar dilution method in presence of beta-lactamase inhibitor Tazobactam; assay type: functional
Klebsiella pneumoniae [14] = assay: Antimicrobial activity against carbapenem-resistant KPC-2 producing Klebsiella pneumoniae 526 ST 376 expressing beta-lactamase SHV-1 by agar dilution method in presence of beta-lactamase inhibitor Tazobactam; assay type: functional
Klebsiella pneumoniae [15] = assay: Antimicrobial activity against carbapenem-resistant KPC-2 producing Klebsiella pneumoniae 526 transformant by agar dilution method in presence of beta-lactamase inhibitor Tazobactam; assay type: functional
Klebsiella pneumoniae [16] = assay: Antimicrobial activity against KPC-3 producing Klebsiella pneumoniae 549 ST 327 expressing beta-lactamase TEM-1 and CTX-M-2 by agar dilution method in presence of beta-lactamase inhibitor Tazobactam; assay type: functional
Klebsiella pneumoniae [17] = assay: Antimicrobial activity against KPC-3 producing Klebsiella pneumoniae 549 transformant by agar dilution method in presence of beta-lactamase inhibitor Tazobactam; assay type: functional
Klebsiella pneumoniae [18] = assay: Antimicrobial activity against KPC-3 producing Klebsiella pneumoniae 557 transformant by agar dilution method in presence of beta-lactamase inhibitor Tazobactam; assay type: functional
Escherichia coli [19] = assay: Antimicrobial activity against Escherichia coli Genehogs by agar dilution method in presence of beta-lactamase inhibitor Tazobactam; assay type: functional
Klebsiella pneumoniae [20] = assay: Antimicrobial activity against KPC-3 producing Klebsiella pneumoniae 557 ST 258 expressing beta-lactamase TEM-1 by agar dilution method in presence of beta-lactamase inhibitor Tazobactam
Klebsiella pneumoniae [21] = assay: Antimicrobial activity against carbapenem-resistant KPC-2 producing Klebsiella pneumoniae 365 ST 376 expressing beta-lactamase SHV-1, CTX-M-15 and OXA-4 by agar dilution method in presence of beta-lactamase inhibitor Tazobactam
Klebsiella pneumoniae [22] = assay: Antimicrobial activity against carbapenem-resistant KPC-2 producing Klebsiella pneumoniae 523 ST 340 expressing beta-lactamase TEM-1, SHV-11 and OXA-2 by Etest; assay type: functional
Klebsiella pneumoniae [23] = assay: Antimicrobial activity against carbapenem-resistant KPC-2 producing Klebsiella pneumoniae 523 transformant by Etest; assay type: functional
Klebsiella pneumoniae [24] = assay: Antimicrobial activity against carbapenem-resistant KPC-2 producing Klebsiella pneumoniae 588 ST 340 expressing beta-lactamase TEM-1 and SHV-11 by Etest; assay type: functional
Klebsiella pneumoniae [25] = assay: Antimicrobial activity against carbapenem-resistant KPC-2 producing Klebsiella pneumoniae 588 transformant by Etest; assay type: functional
Klebsiella pneumoniae [26] = assay: Antimicrobial activity against carbapenem-resistant KPC-2 producing Klebsiella pneumoniae 365 transformant by Etest; assay type: functional
Klebsiella pneumoniae [27] = assay: Antimicrobial activity against carbapenem-resistant KPC-2 producing Klebsiella pneumoniae 531 ST 376 expressing beta-lactamase SHV-1 by Etest; assay type: functional
Klebsiella pneumoniae [28] = assay: Antimicrobial activity against carbapenem-resistant KPC-2 producing Klebsiella pneumoniae 531 transformant by Etest; assay type: functional
Klebsiella pneumoniae [29] = assay: Antimicrobial activity against carbapenem-resistant KPC-2 producing Klebsiella pneumoniae 525 ST 376 expressing beta-lactamase SHV-1 by Etest; assay type: functional
Klebsiella pneumoniae [30] = assay: Antimicrobial activity against carbapenem-resistant KPC-2 producing Klebsiella pneumoniae 525 transformant by Etest; assay type: functional
Klebsiella pneumoniae [31] = assay: Antimicrobial activity against carbapenem-resistant KPC-2 producing Klebsiella pneumoniae 526 ST 376 expressing beta-lactamase SHV-1 by Etest; assay type: functional
Klebsiella pneumoniae [32] = assay: Antimicrobial activity against carbapenem-resistant KPC-2 producing Klebsiella pneumoniae 526 transformant by Etest; assay type: functional
Klebsiella pneumoniae [33] = assay: Antimicrobial activity against KPC-3 producing Klebsiella pneumoniae 549 ST 327 expressing beta-lactamase TEM-1 and CTX-M-2 by Etest; assay type: functional
Klebsiella pneumoniae [34] = assay: Antimicrobial activity against KPC-3 producing Klebsiella pneumoniae 549 transformant by Etest; assay type: functional
Klebsiella pneumoniae [35] = assay: Antimicrobial activity against KPC-3 producing Klebsiella pneumoniae 557 transformant by Etest; assay type: functional
Escherichia coli [36] = assay: Antimicrobial activity against Escherichia coli Genehogs by Etest; assay type: functional
Klebsiella pneumoniae [37] = assay: Antimicrobial activity against carbapenem-resistant KPC-2 producing Klebsiella pneumoniae 475 ST 277 expressing beta-lactamase SHV-27, CTX-M-15 and OXA-4 by Etest; assay type: functional
Klebsiella pneumoniae [38] = assay: Antimicrobial activity against carbapenem-resistant KPC-2 producing Klebsiella pneumoniae 475 transformant by Etest; assay type: functional
Klebsiella pneumoniae [39] = assay: Antimicrobial activity against carbapenem-resistant KPC-2 producing Klebsiella pneumoniae 469 ST 277 expressing beta-lactamase SHV-27, CTX-M-15 and OXA-4 by Etest; assay type: functional
Klebsiella pneumoniae [40] = assay: Antimicrobial activity against carbapenem-resistant KPC-2 producing Klebsiella pneumoniae 469 transformant by Etest; assay type: functional
Klebsiella pneumoniae [41] = assay: Antimicrobial activity against KPC-3 producing Klebsiella pneumoniae 557 ST 258 expressing beta-lactamase TEM-1 by Etest
Klebsiella pneumoniae [42] = assay: Antimicrobial activity against carbapenem-resistant KPC-2 producing Klebsiella pneumoniae 365 ST 376 expressing beta-lactamase SHV-1, CTX-M-15 and OXA-4 by Etest

CCN1CCN(C(=O)N[C@@H](C(=O)N[C@@H]2C(=O)N3[C@@H]2SC(C)(C)[C@@H]3C(=O)O)c2ccccc2)C(=O)C1=O [PIPERACILLIN]
MIC (Klebsiella pneumoniae [1]): > 128 µg/mL
MIC (Klebsiella pneumoniae [2]): > 128 µg/mL
MIC (Klebsiella pneumoniae [3]): > 128 µg/mL
MIC (Klebsiella pneumoniae [4]): > 128 µg/mL
MIC (Klebsiella pneumoniae [5]): 128 µg/mL
MIC (Klebsiella pneumoniae [6]): > 128 µg/mL
MIC (Klebsiella pneumoniae [7]): > 128 µg/mL
MIC (Klebsiella pneumoniae [8]): > 128 µg/mL
MIC (Klebsiella pneumoniae [9]): > 128 µg/mL
MIC (Klebsiella pneumoniae [10]): > 128 µg/mL
MIC (Klebsiella pneumoniae [11]): 64 µg/mL
MIC (Klebsiella pneumoniae [12]): > 128 µg/mL
MIC (Klebsiella pneumoniae [13]): 64 µg/mL
MIC (Klebsiella pneumoniae [14]): > 128 µg/mL
MIC (Klebsiella pneumoniae [15]): > 128 µg/mL
MIC (Klebsiella pneumoniae [16]): > 320 µg/mL
MIC (Klebsiella pneumoniae [17]): 64 µg/mL
MIC (Klebsiella pneumoniae [18]): 64 µg/mL
MIC (Escherichia coli [19]): < 4 µg/mL
MIC (Klebsiella pneumoniae [20]): > 320 µg/mL
MIC (Klebsiella pneumoniae [21]): > 128 µg/mL

CN(C)c1cc(NC(=O)CNC(C)(C)C)c(O)c2c1C[C@H]1C[C@H]3[C@H](N(C)C)C(O)=C(C(N)=O)C(=O)[C@@]3(O)C(O)=C1C2=O [TIGECYCLINE]
MIC (Klebsiella pneumoniae [22]): 0.5 µg/mL (≈ 0.854 µM)
MIC (Klebsiella pneumoniae [23]): 0.125 µg/mL (≈ 0.213 µM)
MIC (Klebsiella pneumoniae [24]): 2 µg/mL (≈ 3.41 µM)
MIC (Klebsiella pneumoniae [25]): 0.125 µg/mL (≈ 0.213 µM)
MIC (Klebsiella pneumoniae [26]): 0.125 µg/mL (≈ 0.213 µM)
MIC (Klebsiella pneumoniae [27]): 1.5 µg/mL (≈ 2.56 µM)
MIC (Klebsiella pneumoniae [28]): 0.125 µg/mL (≈ 0.213 µM)
MIC (Klebsiella pneumoniae [29]): 1 µg/mL (≈ 1.71 µM)
MIC (Klebsiella pneumoniae [30]): 0.125 µg/mL (≈ 0.213 µM)
MIC (Klebsiella pneumoniae [31]): 1.5 µg/mL (≈ 2.56 µM)
MIC (Klebsiella pneumoniae [32]): 0.125 µg/mL (≈ 0.213 µM)
MIC (Klebsiella pneumoniae [33]): 0.75 µg/mL (≈ 1.28 µM)
MIC (Klebsiella pneumoniae [34]): 0.19 µg/mL (≈ 0.324 µM)
MIC (Klebsiella pneumoniae [35]): 0.125 µg/mL (≈ 0.213 µM)
MIC (Escherichia coli [36]): 0.094 µg/mL (≈ 0.161 µM)
MIC (Klebsiella pneumoniae [37]): 4 µg/mL (≈ 6.83 µM)
MIC (Klebsiella pneumoniae [38]): 0.125 µg/mL (≈ 0.213 µM)
MIC (Klebsiella pneumoniae [39]): 1 µg/mL (≈ 1.71 µM)
MIC (Klebsiella pneumoniae [40]): 0.125 µg/mL (≈ 0.213 µM)
MIC (Klebsiella pneumoniae [41]): 4 µg/mL (≈ 6.83 µM)
MIC (Klebsiella pneumoniae [42]): 1 µg/mL (≈ 1.71 µM)
